Consider one compound from publication PMC7157241, “Phenotypic Drug Discovery for Human African Trypanosomiasis: A Powerful Approach” (Tropical Medicine and Infectious Disease, 2020).

For data set [1], the system named is T. brucei brucei (strain BF427). The experiment in a line: In vitro parasite growth arrest assay (AlamarBlue). It counts as cell-based, Trypanosoma brucei brucei. The following applies: Trypanosoma brucei, selected hit compounds, Table 1; read-out: T. brucei EC50. How it is done: Follow up compounds were tested for antiparasitic activity on T. brucei brucei (strain BF427). Parasites were tested in triplicate in the presence of serial dilutions of compound, and growth was quantified with AlamarBlue.
Background: The colour change of resazurin is a common sign of viable cells or microbes.

Details of data set [2]: method as in PMID 28835807. Particulars: data are for close analog of Scaffold 9 parent (parent had poor ionization in MS); 60 min following IP dose; cited from earlier work.
A short description of data set [3]: Mammalian cell cytotoxicity assay (AlamarBlue, 48 h). It counts as cell-based. Particulars: human, CRL-8155 cells (lymphoblasts); lymphocytic cell line CRL-8155; read-out: Mammalian CC50. How it is done: Compounds were tested for cytotoxicity against CRL-8155 cells (human lymphoblasts). Cells were grown in culture with serial dilutions of compounds for 48 h and cytotoxicity was assayed using AlamarBlue (Life Technologies, Carlsbad, California CA, USA).

The EC50 is the midpoint of the concentration-response curve. As a reminder, the CC50 is the concentration at which the toxic effect on the cells reaches its halfway point.

Marks after values point to notes of the source that are not given here.

Consider `COc1ccc(N2C(=O)CN(Cc3ccccc3)C2=S)cc1Cl` [Scaffold 9], for which, in data set [1], the EC50 was determined as 0.346 µM. The “B/P Ratio (Mouse)” value in data set [2] is 0.743 ***. Besides, the CC50 at 48 h in data set [3] was greater than 50 µM.
